Assay [1] addresses T1, E. coli Exonuclease I (E. coli) (UniProt P04995).
T1 sequence: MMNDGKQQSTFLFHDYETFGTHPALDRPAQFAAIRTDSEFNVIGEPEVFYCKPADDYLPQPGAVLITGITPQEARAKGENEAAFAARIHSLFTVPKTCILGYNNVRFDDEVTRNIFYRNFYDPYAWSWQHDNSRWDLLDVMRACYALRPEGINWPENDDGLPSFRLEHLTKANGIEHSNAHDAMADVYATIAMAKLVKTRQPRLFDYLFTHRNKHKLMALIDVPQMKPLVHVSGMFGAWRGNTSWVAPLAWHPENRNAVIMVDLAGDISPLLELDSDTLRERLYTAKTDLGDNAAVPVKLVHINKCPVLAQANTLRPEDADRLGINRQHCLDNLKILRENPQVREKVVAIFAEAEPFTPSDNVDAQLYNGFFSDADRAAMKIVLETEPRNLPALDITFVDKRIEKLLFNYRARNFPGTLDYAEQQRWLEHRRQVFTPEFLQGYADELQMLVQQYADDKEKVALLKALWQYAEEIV
The assay is described as follows: fluorescence polarisation.

A further assay concerns the target E. coli ExoI (Escherichia coli, UniProt P04995). The assay can be described thus: Peptide competition-binding assay.
For assay [2], the target named is ExoI/SSB/ssDNA ternary complex (Escherichia coli, UniProt P04995). The assay can be described thus: Exonuclease assay: inhibition of SSB-stimulated ExoI nuclease activity. In kind it is biochemical, E. coli.
The target of assay [3] is T2, E. coli Exonuclease I (E. coli, UniProt P04995 1-475).
T2 sequence (looked up): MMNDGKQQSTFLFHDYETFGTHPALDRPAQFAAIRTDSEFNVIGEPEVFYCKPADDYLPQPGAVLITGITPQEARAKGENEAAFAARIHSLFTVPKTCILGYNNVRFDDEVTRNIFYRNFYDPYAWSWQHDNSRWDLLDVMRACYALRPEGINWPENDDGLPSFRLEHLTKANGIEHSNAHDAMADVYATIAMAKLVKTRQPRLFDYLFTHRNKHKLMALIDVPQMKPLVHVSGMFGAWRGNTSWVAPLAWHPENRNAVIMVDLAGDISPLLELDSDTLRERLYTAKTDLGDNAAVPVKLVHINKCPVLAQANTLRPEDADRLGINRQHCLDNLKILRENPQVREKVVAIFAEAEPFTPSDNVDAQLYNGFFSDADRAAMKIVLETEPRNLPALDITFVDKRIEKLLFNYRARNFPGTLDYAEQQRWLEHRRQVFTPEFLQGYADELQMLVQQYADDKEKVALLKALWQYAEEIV
The assay is described as follows: fluorescence polarisation. For orientation: Polarisation of emitted light reports the rotation of a fluorescent probe.

Assay [4] has as its target T2, E. coli Exonuclease I. The assay is described as follows: fluorescence polarisation. The source holds these as a separate data set.
The target in assay [5] is T2, E. coli Exonuclease I.

Like-named read-outs stand apart in the source and are kept apart here. Residues, ends and D or L forms follow the SMILES beside them. No end group written: not given here. fluorescein = fluorescein (label on the N-terminus)

Turning to SSB-Ct Phe-to-Tyr variant peptide …, in assay [1], the IC50 (as a rule, the concentration that inhibits the measured activity by half) stood at 382 µM and the K (bind) (apparent inhibitor dissociation constant) turned out to be 79 µM.

Regarding WMDFADDIPF [WMDFADDIPF], the 50% inhibitory concentration (IC50) was 8.5 ± 0.3 µM at E. coli ExoI and roughly 1 µM in assay [2].

Take WDIPF [WDIPF, Trp-Asp-Ile-Pro-Phe]: in assay [2], the IC50 was greater than 100 µM.

With WMDFDDDI [WMDFDDDI], the results for the IC50 (on E. coli ExoI; in assay [2]) were greater than 1000 µM and roughly 40 µM, respectively.

In the case of WMDFDDDIP [WMDFDDDIP], the IC50 at E. coli ExoI is greater than 1000 µM; in assay [2] it was roughly 40 µM.

On to WMAFAAAIPF [WMAFAAAIPF], for which the IC50 on E. coli ExoI was 169 ± 15 µM; in assay [2], roughly 20 µM.

As to `CC[C@H](C)[C@H](NC(=O)[C@@H](N)Cc1c[nH]c2ccccc12)C(=O)N1CCC[C@H]1C(=O)N[C@@H](Cc1ccccc1)C(=O)O` [WIPF] (H-WIPF-OH), the IC50 was 252 ± 12 µM on E. coli ExoI and greater than 100 µM in assay [2].

For the molecule WDDIPF [WDDIPF], in assay [2], the IC50 was roughly 40 µM.

Take WFDDDIPF [WFDDDIPF]: in assay [2], the IC50 was roughly 10 µM.

WMDFDDDIPY [WMDFDDDIPY]: the IC50 is 382 ± 41 µM at E. coli ExoI and roughly 10 µM in assay [2].

As for WMDFDDD [WMDFDDD], the IC50 at E. coli ExoI was greater than 1000 µM; in assay [2] it was roughly 40 µM.

In turn, WDFDDDIPF [WDFDDDIPF] displayed an IC50 in assay [2] of roughly 1 µM.

Take WMAFDDDIPF [WMAFDDDIPF]: the IC50 is 11.6 ± 0.9 µM at E. coli ExoI and roughly 1 µM in assay [2].

As to WMDFDDDISF [WMDFDDDISF], the IC50 at E. coli ExoI was 52.9 ± 3.5 µM; in assay [2], roughly 10 µM.

“WMDFDDDIPF [WMDFDDDIPF, Trp-Met-Asp-Phe-Asp-Asp-Asp-Ile-Pro-Phe]”: the IC50 in assay [2] is roughly 1 µM.

As for WMDFDADIPF [WMDFDADIPF], the IC50 on E. coli ExoI is 6.7 ± 0.3 µM; in assay [2] it was roughly 1 µM.

Regarding SSB-Ct Pro-to-Ser variant peptide …, in assay [1], the IC50 was found to be 52.9 µM and the K (bind) (apparent inhibitor dissociation constant) was 10.8 µM.

In turn, WDDDIPF [WDDDIPF] showed an IC50 in assay [2] of roughly 40 µM.

With WMDFDDAIPF [WMDFDDAIPF], the IC50 is 9.3 ± 0.3 µM on E. coli ExoI and roughly 1 µM in assay [2].

As to WFDDDIPF [SSB-Ct N-terminal truncation peptide WFDDDIPF], in the assay with E. coli Exonuclease I [3], the IC50 came to 12.1 ± 0.7 µM and the “K_(bind) (apparent inhibitor dissociation constant)” value was 2.3 ± 0.1 µM.

WIPF [SSB-Ct N-terminal truncation peptide WIPF]: the K (bind) (apparent inhibitor dissociation constant) in assay [1] was 52 µM.

Regarding WMDFDDDIPF [SSB-Ct peptide WMDFDDDIPF (wild type)], in the assay with E. coli Exonuclease I [3], half-maximal inhibition (IC50) was put at 5.2 ± 0.2 µM and the “K_(bind) (apparent inhibitor dissociation constant)” value was determined as 0.9 ± 0.1 µM.

Consider WMDFDDDIP [SSB-Ct C-terminal truncation peptide WMDFDDDIP], for which the “K_(bind) (apparent inhibitor dissociation constant)” value with E. coli Exonuclease I [3] was greater than 200 µM.

WMDFDDD [SSB-Ct C-terminal truncation peptide WMDFDDD]: the “K_(bind) (apparent inhibitor dissociation constant)” value with E. coli Exonuclease I [3] was greater than 200 µM.

Regarding WDFDDDIPF [SSB-Ct N-terminal truncation peptide WDFDDDIPF], in the assay with E. coli Exonuclease I [3], half-maximal inhibition (IC50) required 4.3 ± 0.1 µM and the “K_(bind) (apparent inhibitor dissociation constant)” value came to 0.7 ± 0.1 µM.

As to WMDFDDDI [SSB-Ct C-terminal truncation peptide WMDFDDDI], the “K_(bind) (apparent inhibitor dissociation constant)” value with E. coli Exonuclease I [3] was greater than 200 µM.

As to WDDDIPF [SSB-Ct N-terminal truncation peptide WDDDIPF], in the assay with E. coli Exonuclease I [3], the IC50 turned out to be 25.3 ± 0.9 µM and the “K_(bind) (apparent inhibitor dissociation constant)” value was 5.1 ± 0.8 µM.

fluorescein-WMDFDDDIPF [F-SSB-Ct (SSB-Ct with an N-terminal fluorescein)]: the Kd (commonly the equilibrium constant for the complex coming apart) turned out to be 0.261 ± 0.022 µM with E. coli Exonuclease I [4] and 0.178 ± 0.01 µM in the assay with E. coli Exonuclease I [5].

Turning to WDDIPF [SSB-Ct N-terminal truncation peptide WDDIPF], in the assay with E. coli Exonuclease I [3], the IC50 amounted to 33.5 ± 2.6 µM and the “K_(bind) (apparent inhibitor dissociation constant)” value was 6.8 ± 0.1 µM.

In the case of WDIPF [SSB-Ct N-terminal truncation peptide WDIPF], in the assay with E. coli Exonuclease I [3], 79.1 ± 2.9 µM corresponded to half-maximal inhibition (IC50) and the “K_(bind) (apparent inhibitor dissociation constant)” value worked out at 16.2 ± 0.6 µM.
